Data from patent US8377935B2, “Substituted aminopropenyl piperidine or morpholine derivatives as novel inhibitors of histone deacetylase” (Janssen Pharmaceutica N.V., priority 2005, dated 2013).

Assays:
[1] = target: histone deacetylase (HeLa nuclear extracts); experiment: In vitro assay for inhibition of histone deacetylase (HDAC Fluorescent Activity Assay, Fluor de Lys); format: biochemical; conditions: HeLa nuclear extracts 60 μg/ml, 75 μM Fluor de Lys substrate
Excerpt: The in vitro assay for inhibition of histone deacetylase (see example C.1) measures the inhibition of HDAC enzymatic activity obtained with the compounds of formula (I).
The HDAC Fluorescent Activity Assay/Drug Discovery Kit of Biomol (cat.No: AK-500-0001) was used. The HDAC Fluorescent Activity Assay is based on the Fluor de Lys (Fluorogenic Histone deAcetylase Lysyl) substrate and developer combination. The Fluor de Lys substrate, comprises an acetylated lysine side chain. Deacetylation of the substrate sensitizes the substrate so that, in the second step, treatment with the Fluor de Lys developer produces a fluorophore.
HeLa nuclear extracts (supplier: Biomol) were incubated at 60 μg/ml with 75 μM of substrate. The Fluor de Lys substrate was added in a buffer containing 25 mM Tris, 137 mM. NaCl, 2.7 mM KCl and 1 mM MgCl2.6H2O at pH 7.4. After 30 min, 1 volume of the developer was added. The fluorophore was excited with 355 nm light and the emitted light (450 nm) was be detected on a fluorometric plate reader.
For each experiment, controls (containing HeLa nuclear extract and buffer), a blank incubation (containing buffer but no HeLa nuclear extract) and samples (containing compound dissolved in DMSO and further diluted in buffer and HeLa nuclear extract) were run in parallel. In first instance, compounds were tested at a concentration of 10^−5M. […] All sample were tested 4 times. In each test the blank value was substracted from both the control and the sample values. The control sample represented 100% of substrate deactylation. For each sample the fluorescence was expressed as a percentage of the mean value of the controls. […] Herein the effects of test compounds are expressed as pIC50 (the negative log value of the IC50-value) (see Table F-3).

[2] = system: p21 promoter; experiment: p21 induction capacity, in vivo method (tumour fluorescence in nude mice); design: key: inactive (no fluorescence measurable); weaker, identical or better than R306465; weaker, identical or better than R306465; weaker, identical or better than R306465; conditions: oral administration, daily during 6 days, 20-40 mpk
Procedure: A first method tests the capacity of compounds to induce p21 as the consequence of HDAC inhibition at the cellular level. […] The reporter gene is a fluorescent protein and the expression of the reporter gene is measured as the amount of fluorescent light emitted (see example C.6.a.). The second method is an in vivo method wherein mice are used for screening the pharmaceutical activity of a compound. The above described stably transformed tumour cells can be administered to mice in an amount sufficient to effect production of a tumour. After the tumour cells had sufficient time to form a tumour, a potentially active compound can be administered to the animals and the effect of said compound On the tumour cells is evaluated by measuring the expression of the reporter gene. […]
A selected clone was injected subcutaneous (10^7 cells/200 μl) into the flank of nude mice and a calliper measurable tumour was obtained after 12 days. […] Tumours were evaluated for fluorescence by the in-house developed Automated Whole Body Imaging System (Fluorescent stereomicroscope type Olympus® SZX12 equipped with a GFP filter and coupled to a CCD camera type IAI® CV-M90 controlled by a software package based on the IMAQ Vision Software from National Instruments®). […]

[3] = system: A2780 ovarian carcinoma cells; experiment: Determination of antiproliferative activity on A2780 cells (MTT); format: cell-based; conditions: Homo sapiens, 96 h, four days of incubation, read-out: Cellular activity pIC50 (converted)
Procedure: Cellular activity of the compounds of formula (I) was determined on A2780 tumour cells using a colorimetric assay for cell toxicity or survival (Mosmann Tim, Journal of Immunological Methods 65:55-63, 1983)(see example C.2).
All compounds tested were dissolved in DMSO and further dilutions were made in culture medium. Final DMSO concentrations never exceeded 0.1% (v/v) in cell proliferation assays. Controls contained A2780 cells and DMSO without compound and blanks contained DMSO but no cells. MTT was dissolved at 5 mg/ml in PBS. A glycine buffer comprised of 0.1 M glycine and 0.1 M NaCl buffered to pH 10.5 with NaOH (1 N) was prepared (all reagents were from Merck).
The human A2780 ovarian carcinoma cells (a kind gift from Dr. T. C. Hamilton [Fox Chase Cancer Centre, Pennsylvania, USA]) were cultured in RPMI 1640 medium supplemented with 2 mM L-glutamine, 50 μg/ml gentamicin and 10% fetal calf serum. Cells were routinely kept as monolayer cultures at 37° C. in a humidified 5% CO2 atmosphere. Cells were passaged once a week using a trypsin/EDTA solution at a split ratio of 1:40. All media and supplements were obtained from Life Technologies. Cells were free of mycoplasma contamination as determined using the Gen-Probe Mycoplasma Tissue Culture kit (supplier: BioMerieux).
Cells were seeded in NUNC™ 96-well culture plates (Supplier: Life Technologies) and allowed to adhere to the plastic overnight. Densities used for plating were 1500 cells per well in a total volume of 200 μl medium. After cell adhesion to the plates, medium was changed and drugs and/or solvents were added to a final volume of 200 μl. Following four days of incubation, medium was replaced by 200 μl fresh medium and cell density and viability was assessed using an MTT-based assay. To each well, 25 μl MTT solution was added and the cells were further incubated for 2 hours at 37° C. The medium was then carefully aspirated and the blue MTT-formazan product was solubilized by addition of 25 μl glycine buffer followed by 100 μl of DMSO. […] Within an experiment, the results for each experimental condition are the mean of 3 replicate wells. For initial screening purposes, compounds were tested at a single fixed concentration of 10^−6 M. For active compounds, the experiments were repeated to establish full concentration-response curves. For each experiment, controls (containing no drug) and a blank incubation (containing no cells or drugs) were run in parallel. The blank value was subtracted from all control and sample values. For each sample, the mean value for cell growth (in absorbance units) was expressed as a percentage of the mean value for cell growth of the control. […] Herein the effects of test compounds are expressed as pIC50 (the negative log value of the IC50-value)(see Table F-3).

## O=C(NO)c1cnc(N2CCC(CNC(/C=C/c3ccccc3)CO)CC2)nc1 (stereo not drawn) [Compound 1]
[1]
  Enzyme activity pIC50: 9.0
[2]
  tumour fluorescence (p21 induction) ranked against R306465: better
[3]
  IC50: 0.0251 µM
